{"source": "patent EP0238198A2", "about": "“Method of modifying the lipid structure function and expression of cell membranes and pharmaceutical compositions for use therein” (Habib, Nagy Adly, priority 1986, dated 1987)", "tested_on": "type 2 herpes simplex virus (HSV)", "assay": "HSV2 replication in human embryonic lung fibroblasts (virus yield)", "type": "cell-based, HSV type 2", "conditions": "for inhibition at 100 µM: Human alphaherpesvirus 2, Fibroblast, 28 h, read-out: % reduction in virus yield compared with control cultures", "procedure": "Stearic and iodinated stearic acids were assayed for their inhibitory effects on the replication of type 2 herpes simplex virus (HSV) in sub-confluent monolayer cultures of human embryonic lung fibroblasts. […] This was accomplished by reacting hydriodic acid with oleic acid in acetic acid at 20°C. Excess iodine was removed at the end of the reaction by the addition of an excess of sodium thiosulphate, and the product fatty acid was extracted into hexane.\nBovine serum albumin conjugates of the fatty acids (prepared according to the method of A.A.Spector and-J.C.Hoak, J.Anal.Biochem. 1969, 32, 297-302) were added to the cell culture medium at various concentrations in the range 25 - 100 micromolar final concentration and at various times before and after (from 0 to 12 hours) infection with partially purified clinical isolates of HSV type 2, at a multiplicity of infection of 0.1 plaque forming units/cell.\n28 hours after infection the titre of infectious virus in the culture supernatants was determined by standard infectious centre techniques on fresh human embryonic lung fibroblasts.", "key": {"[1]": {"conditions": "stearic acid 100 µM, time relative to infection -2 hours"}, "[2]": {"conditions": "stearic acid 100 µM, time relative to infection -3 hours"}, "[3]": {"conditions": "stearic acid 100 µM, time relative to infection -4 hours"}, "[4]": {"conditions": "stearic acid 100 µM, time relative to infection -8 hours"}, "[5]": {"conditions": "stearic acid 100 µM, time relative to infection -12 hours"}}, "note": "Where two headings read alike, the source gives them in different places."}
{"smiles": "CCCCCCCCCCCCCCCCCC(=O)O", "note": "[stearic acid, octadecanoic acid]", "values": [{"measurement": "inhibition at 100 µM", "setting": "[1]", "result": 36, "unit": "%"}, {"measurement": "inhibition at 100 µM", "setting": "[2]", "result": 35, "unit": "%"}, {"measurement": "inhibition at 100 µM", "setting": "[3]", "result": 20, "unit": "%"}, {"measurement": "inhibition at 100 µM", "setting": "[4]", "result": 0, "unit": "%"}, {"measurement": "inhibition at 100 µM", "setting": "[5]", "result": 0, "unit": "%"}, {"measurement": "virus yield", "setting": "stearic acid 25 µM, time relative to infection 1 hours", "result": "4.11 x 10^-3 / pfu ml^-1"}, {"measurement": "virus yield", "setting": "stearic acid 25 µM, time relative to infection 2 hours", "result": "4.31 x 10^-3 / pfu ml^-1"}, {"measurement": "virus yield", "setting": "stearic acid 25 µM, time relative to infection 3 hours", "result": "3.89 x 10^-3 / pfu ml^-1"}, {"measurement": "virus yield", "setting": "stearic acid 25 µM, time relative to infection 4 hours", "result": "4.26 x 10^-3 / pfu ml^-1"}, {"measurement": "virus yield", "setting": "stearic acid 25 µM, time relative to infection 8 hours", "result": "4.41 x 10^-3 / pfu ml^-1"}, {"measurement": "virus yield", "setting": "stearic acid 25 µM, time relative to infection 12 hours", "result": "4.21 x 10^-3 / pfu ml^-1"}, {"measurement": "virus yield", "setting": "stearic acid 25 µM, time relative to infection -1 hours", "result": "4.06 x 10^-3 / pfu ml^-1"}, {"measurement": "virus yield", "setting": "stearic acid 25 µM, time relative to infection -2 hours", "result": "3.72 x 10^-3 / pfu ml^-1"}, {"measurement": "virus yield", "setting": "stearic acid 25 µM, time relative to infection -3 hours", "result": "4.15 x 10^-3 / pfu ml^-1"}, {"measurement": "virus yield", "setting": "stearic acid 25 µM, time relative to infection -4 hours", "result": "4.25 x 10^-3 / pfu ml^-1"}, {"measurement": "virus yield", "setting": "stearic acid 25 µM, time relative to infection -8 hours", "result": "3.88 x 10^-3 / pfu ml^-1"}, {"measurement": "virus yield", "setting": "stearic acid 25 µM, time relative to infection -12 hours", "result": "4.63 x 10^-3 / pfu ml^-1"}, {"measurement": "virus yield", "setting": "stearic acid 50 µM, time relative to infection 0 hours", "result": "4.00 x 10^-3 / pfu ml^-1"}, {"measurement": "virus yield", "setting": "stearic acid 50 µM, time relative to infection 1 hours", "result": "3.96 x 10^-3 / pfu ml^-1"}, {"measurement": "virus yield", "setting": "stearic acid 50 µM, time relative to infection 2 hours", "result": "4.45 x 10^-3 / pfu ml^-1"}, {"measurement": "virus yield", "setting": "stearic acid 50 µM, time relative to infection 3 hours", "result": "3.88 x 10^-3 / pfu ml^-1"}, {"measurement": "virus yield", "setting": "stearic acid 50 µM, time relative to infection 4 hours", "result": "4.36 x 10^-3 / pfu ml^-1"}, {"measurement": "virus yield", "setting": "stearic acid 50 µM, time relative to infection 8 hours", "result": "4.09 x 10^-3 / pfu ml^-1"}, {"measurement": "virus yield", "setting": "stearic acid 50 µM, time relative to infection 12 hours", "result": "3.92 x 10^-3 / pfu ml^-1"}, {"measurement": "virus yield", "setting": "stearic acid 50 µM, time relative to infection -1 hours", "result": "3.14 x 10^-3 / pfu ml^-1"}, {"measurement": "virus yield", "setting": "stearic acid 50 µM, time relative to infection -2 hours", "result": "3.02 x 10^-3 / pfu ml^-1"}, {"measurement": "virus yield", "setting": "stearic acid 50 µM, time relative to infection -3 hours", "result": "3.15 x 10^-3 / pfu ml^-1"}, {"measurement": "virus yield", "setting": "stearic acid 50 µM, time relative to infection -4 hours", "result": "3.98 x 10^-3 / pfu ml^-1"}, {"measurement": "virus yield", "setting": "stearic acid 50 µM, time relative to infection -8 hours", "result": "4.62 x 10^-3 / pfu ml^-1"}, {"measurement": "virus yield", "setting": "stearic acid 50 µM, time relative to infection -12 hours", "result": "4.75 x 10^-3 / pfu ml^-1"}, {"measurement": "virus yield", "setting": "stearic acid 75 µM, time relative to infection 0 hours", "result": "3.55 x 10^-3 / pfu ml^-1"}, {"measurement": "virus yield", "setting": "stearic acid 75 µM, time relative to infection 1 hours", "result": "4.44 x 10^-3 / pfu ml^-1"}, {"measurement": "virus yield", "setting": "stearic acid 75 µM, time relative to infection 2 hours", "result": "3.92 x 10^-3 / pfu ml^-1"}, {"measurement": "virus yield", "setting": "stearic acid 75 µM, time relative to infection 3 hours", "result": "4.53 x 10^-3 / pfu ml^-1"}, {"measurement": "virus yield", "setting": "stearic acid 75 µM, time relative to infection 4 hours", "result": "4.21 x 10^-3 / pfu ml^-1"}, {"measurement": "virus yield", "setting": "stearic acid 75 µM, time relative to infection 8 hours", "result": "3.87 x 10^-3 / pfu ml^-1"}, {"measurement": "virus yield", "setting": "stearic acid 75 µM, time relative to infection 12 hours", "result": "4.11 x 10^-3 / pfu ml^-1"}, {"measurement": "virus yield", "setting": "stearic acid 75 µM, time relative to infection -1 hours", "result": "2.54 x 10^-3 / pfu ml^-1"}, {"measurement": "virus yield", "setting": "stearic acid 75 µM, time relative to infection -2 hours", "result": "2.69 x 10^-3 / pfu ml^-1"}, {"measurement": "virus yield", "setting": "stearic acid 75 µM, time relative to infection -3 hours", "result": "2.31 x 10^-3 / pfu ml^-1"}, {"measurement": "virus yield", "setting": "stearic acid 75 µM, time relative to infection -4 hours", "result": "2.25 x 10^-3 / pfu ml^-1"}, {"measurement": "virus yield", "setting": "stearic acid 75 µM, time relative to infection -8 hours", "result": "4.18 x 10^-3 / pfu ml^-1"}, {"measurement": "virus yield", "setting": "stearic acid 75 µM, time relative to infection -12 hours", "result": "3.96 x 10^-3 / pfu ml^-1"}, {"measurement": "virus yield", "setting": "stearic acid 100 µM, time relative to infection 0 hours", "result": "3.85 x 10^-3 / pfu ml^-1"}, {"measurement": "virus yield", "setting": "stearic acid 100 µM, time relative to infection 1 hours", "result": "3.71 x 10^-3 / pfu ml^-1"}, {"measurement": "virus yield", "setting": "stearic acid 100 µM, time relative to infection 2 hours", "result": "3.96 x 10^-3 / pfu ml^-1"}, {"measurement": "virus yield", "setting": "stearic acid 100 µM, time relative to infection 3 hours", "result": "3.83 x 10^-3 / pfu ml^-1"}, {"measurement": "virus yield", "setting": "stearic acid 100 µM, time relative to infection 4 hours", "result": "4.52 x 10^-3 / pfu ml^-1"}, {"measurement": "virus yield", "setting": "stearic acid 100 µM, time relative to infection 8 hours", "result": "4.03 x 10^-3 / pfu ml^-1"}, {"measurement": "virus yield", "setting": "stearic acid 100 µM, time relative to infection 12 hours", "result": "4.28 x 10^-3 / pfu ml^-1"}, {"measurement": "virus yield", "setting": "stearic acid 100 µM, time relative to infection -1 hours", "result": "3.04 x 10^-3 / pfu ml^-1"}, {"measurement": "virus yield", "setting": "[1]", "result": "2.77 x 10^-3 / pfu ml^-1"}, {"measurement": "virus yield", "setting": "[2]", "result": "2.80 x 10^-3 / pfu ml^-1"}, {"measurement": "virus yield", "setting": "[3]", "result": "3.45 x 10^-3 / pfu ml^-1"}, {"measurement": "virus yield", "setting": "[4]", "result": "4.33 x 10^-3 / pfu ml^-1"}, {"measurement": "virus yield", "setting": "[5]", "result": "4.72 x 10^-3 / pfu ml^-1"}]}
